Patent publication EP1769804B1, “hPTH(1-34) for use in preventing or reducing the incidence or severity of vertebral and / or non vertebral fracture in a male human” (priority 1998, dated 2012)
Marks after values point to notes of the source that are not given here.

Tests used:
Ovariectomized Primates = assay: Cortical histomorphometry of the humerus midshaft; assay type: in vivo, Macaca fascicularis; conditions: mean ± SEM
Excerpt: Biomechanical tests were done on lumbar vertebrae L-3 to L-4, the femur neck, humerus midshaft, and on a cortical bone specimen machined from the femur diaphysis (measures defined in Table 2). Conventional static and dynamic histomorphometry were done (measures described in Table 6) on the humerus midshaft, lumbar vertebra L-2, femoral neck, femur midshaft, the radius midshaft and distal radius. Initial statistical analyses compared all groups to vehicle-treated ovariectomized controls. The data is suitable for additional exploratory analyses to examine dose dependency, effects of withdrawal, interactions between outcomes, and changes in time by methods known to those of skill in the art. All assays were conducted and determined by methods known in the art.
For certain experimental subjects, cortical bone of the humerus was examined by histomorphometry and by polarized Fourier transform infrared microscopy. The Fourier transform infrared microscopy was conducted by an adaptation of known methods for such microscopy.

[1] = test system: ovariectomized cynomolgus primates; assay: Bone mass by DXA and pQCT in the primate study; assay type: in vivo, Macaca fascicularis
Excerpt: (§1) All animals were euthanized after 18 months.

[2] = test system: ovariectomized cynomolgus primates; assay: Serum and urine measures in the primate study; assay type: in vivo, Macaca fascicularis
Excerpt: as §1

rodents = assay: In vivo mechanistic studies in rodents; conditions: after the first dose
post-menopausal women = assay: Clinical trial: number and severity of vertebral fractures (spine x-ray); assay type: in vivo, Humans
[3] = PTH5-W: withdrawal after 5 µg/kg for 12 months
[4] = compared to ovariectomized, 24 hours after injection
[5] = 20 µg/day PTH compared to placebo
[6] = 40 µg/day PTH compared to placebo
[7] = all PTH treated patients compared with placebo

**Q.** What does the source list for teriparatide [rhPTH(1-34)]?
**A.** L.On.N/Ct.A (Number of fluorochrome labeled osteons per unit cortical area) (Ovariectomized Primates; [3]): 0.38 ± 0.26^a #/mm^2; MAR (Mineral apposition rate, intracortical) (Ovariectomized Primates; [3]): 0.85 ± 0.28^a µm/day; MAR.Ec (Mineral apposition rate, endocortical surface) (Ovariectomized Primates; [3]): 0.63 ± 0.17 µm/day; MAR.Ps (mineral apposition rate, periosteal surface) (Ovariectomized Primates; [3]): 0.82 ± 0.15 µm/day; MS/BS.Ec (mineralizing endocortical surface normalized to total endocortical surface) (Ovariectomized Primates; [3]): 8.93 ± 15.39^a %; MS/BS.Ps (Mineralizing periosteal surface normalized to total periosteal surface) (Ovariectomized Primates; [3]): 2.30 ±3.76^a %; Me.Ar (Medullary cavity area) (Ovariectomized Primates; [3]): 17.34 ± 6.05 mm^2; O.Wi (Osteoid width) (Ovariectomized Primates; [3]): 3.76 ± 0.83 µm; Po (Porosity, the percentage of bone area occupied by spaces) (Ovariectomized Primates; [3]): 6.40 ± 4.22^a %; W.Wi (Osteonal wall width) (Ovariectomized Primates; [3]): 63.82 ± 8.31 µm; omt (Osteoid maturation time) (Ovariectomized Primates; [3]): 5.07 ± 2.65 days; Ac.F (Activation frequency) (Ovariectomized Primates; PTH5: 5 µg/kg for 18 months): 8.70 ± 3.97 cycles/year; B.Ar (Bone area, the total area within the periosteal surface) (Ovariectomized Primates; PTH5: 5 µg/kg for 18 months): 55.81 ± 6.24 mm^2; BFR/BS.Ec (bone formation rate, endocortical surface referent) (Ovariectomized Primates; PTH5: 5 µg/kg for 18 months): 34.04 ± 19.01 µm/day; BFR/BS.Ps (Bone formation rate, periosteal surface referent) (Ovariectomized Primates; PTH5: 5 µg/kg for 18 months): 8.99 ± 5.81 µm/day; BFR/BV (Bone formation rate, bone volume referent) (Ovariectomized Primates; PTH5: 5 µg/kg for 18 months): 12.93 ± 5.94^a %/year; Ct.Ar (Cortical area) (Ovariectomized Primates; PTH5: 5 µg/kg for 18 months): 40.96 ± 4.30^a mm^2; FP (Formation period) (Ovariectomized Primates; PTH5: 5 µg/kg for 18 months): 81.97 ± 95.63 days; L.On.N/Ct.A (Number of fluorochrome labeled osteons per unit cortical area) (Ovariectomized Primates; PTH5: 5 µg/kg for 18 months): 1.45 ± 0.47^a #/mm^2; MAR (Mineral apposition rate, intracortical) (Ovariectomized Primates; PTH5: 5 µg/kg for 18 months): 1.03 ± 0.23 µm/day; MAR.Ec (Mineral apposition rate, endocortical surface) (Ovariectomized Primates; PTH5: 5 µg/kg for 18 months): 0.75 ± 0.14 µm/day; MAR.Ps (mineral apposition rate, periosteal surface) (Ovariectomized Primates; PTH5: 5 µg/kg for 18 months): 0.66 ± 0.17 µm/day; MS/BS.Ec (mineralizing endocortical surface normalized to total endocortical surface) (Ovariectomized Primates; PTH5: 5 µg/kg for 18 months): 40.47 ± 24.68^a %; MS/BS.Ps (Mineralizing periosteal surface normalized to total periosteal surface) (Ovariectomized Primates; PTH5: 5 µg/kg for 18 months): 11.00 ± 9.63%; Me.Ar (Medullary cavity area) (Ovariectomized Primates; PTH5: 5 µg/kg for 18 months): 14.85 ± 4.72^a mm^2; O.Wi (Osteoid width) (Ovariectomized Primates; PTH5: 5 µg/kg for 18 months): 3.94 ± 1.13 µm; Po (Porosity, the percentage of bone area occupied by spaces) (Ovariectomized Primates; PTH5: 5 µg/kg for 18 months): 6.78 ± 4.23^a %; Rs.N/Ct.A (number of resorption spaces per unit cortical area) (Ovariectomized Primates; PTH5: 5 µg/kg for 18 months): 0.43 ± 0.26^a #/mm^2; W.Wi (Osteonal wall width) (Ovariectomized Primates; PTH5: 5 µg/kg for 18 months): 65.29 ± 9.43 µm; omt (Osteoid maturation time) (Ovariectomized Primates; PTH5: 5 µg/kg for 18 months): 6.45 ± 13.85 days; increase of whole body bone mineral content (BMC) compared to baseline ([1]; 18 months, DXA): up to 6%; overall skeletal bone mass, expressed as total body BMC ([1]; Fig. 1): increased significantly; proximal tibia BMC and BMD ([1]; compared to ovariectomized controls): increased BMC and BMD; BMD of the midshaft or distal radius ([1]; pQCT): did not alter; increase of cross-sectional area of the midshaft ([1]; radius midshaft, PTH5 group): 7%; serum total alkaline phosphatase (ALP) and osteocalcin ([2]; bone formation markers): restored levels back to sham values; 1,25-dihydroxyvitamin D [2, 4]: higher; endogenous PTH [2, 4]: lower; serum phosphate [2, 4]: lower; urinary cAMP [2, 4]: higher; Urinary C-telopeptide (CrossLaps) excretion ([2]; marker of bone resorption, compared to ovariectomized controls): not altered; time to detectable increase in bone forming surfaces (rodents): ≤ 24 h; Number of patients with 2 or more new vertebral fractures (post-menopausal women; 20 µg/day PTH (n=444)): 5; Number of patients with new moderate to severe fractures (post-menopausal women; 20 µg/day PTH (n=444)): 4; Number of patients with new vertebral fractures (post-menopausal women; 20 µg/day PTH (n=444)): 22; percentage of patients with 2 or more new vertebral fractures (post-menopausal women; 20 µg/day PTH (n=444)): (1.1%); percentage of patients with new moderate to severe fractures (post-menopausal women; 20 µg/day PTH (n=444)): (0.9%); percentage of patients with new vertebral fractures (post-menopausal women; 20 µg/day PTH (n=444)): (5.0%); reduction in number of patients with moderate to severe vertebral fractures (post-menopausal women; [5]): 90%; reduction in number of patients with multiple vertebral fractures (post-menopausal women; [5]): 77%; reduction in number of patients with vertebral fractures (post-menopausal women; [5]): 65%; Number of patients with 2 or more new vertebral fractures (post-menopausal women; 40 µg/day PTH (n=434)): 3; Number of patients with new moderate to severe fractures (post-menopausal women; 40 µg/day PTH (n=434)): 9; Number of patients with new vertebral fractures (post-menopausal women; 40 µg/day PTH (n=434)): 19; percentage of patients with 2 or more new vertebral fractures (post-menopausal women; 40 µg/day PTH (n=434)): (0.7%); percentage of patients with new moderate to severe fractures (post-menopausal women; 40 µg/day PTH (n=434)): (2.1%); percentage of patients with new vertebral fractures (post-menopausal women; 40 µg/day PTH (n=434)): (4.4%); reduction in number of patients with moderate to severe vertebral fractures (post-menopausal women; [6]): 78%; reduction in number of patients with multiple vertebral fractures (post-menopausal women; [6]): 86%; reduction in number of patients with vertebral fractures (post-menopausal women; [6]): 69%; reduction in number of patients with moderate to severe vertebral fractures (post-menopausal women; [7]): 84%; reduction in number of patients with multiple vertebral fractures (post-menopausal women; [7]): 81%; reduction in number of patients with vertebral fractures (post-menopausal women; [7]): 67%; reduction in the number of patients with moderate or severe fractures (post-menopausal women; summary): 78%; reduction of the number of patients with prior vertebral fractures who suffered new vertebral fractures (post-menopausal women; summary): more than 66%; reduction of the number of patients with prior vertebral fractures who suffered new, multiple vertebral fractures (post-menopausal women; summary): more than 78%
